The results in this text go back to US7541374B2, “Malononitrile compounds and use thereof” (Sumitomo Chemical Company, Limited, priority 2004, dated 2009).

Where only a bound is given, the exact number is not on record here.

Holding throughout (type): in vivo
In one assay the test system is Blattella germanica. Put plainly: Test Example 4: treated filter paper with sucrose bait, Blattella germanica. The settings on record: 144 h; 500 ppm, 0.7 ml on filter paper; two male Blattella germanica imagoes; after 6 days; read-out: rate of dead pests. On the procedure:
The formulation obtained according to Formulation Example 5 using the compound of the present invention (2), (3), (4), (6), (7), (8), (9), (11), (12), (13), (15), (16), (18), (19), (20), (21), (22), (27), (28), (29), (30), (31), (32), (33), (34), (35), (36), (37), (38), (43) and […] respectively, was diluted with water so that the active ingredient concentration came to 500 ppm to prepare a pesticidal solution for test.
On the bottom of a polyethylene cup having a diameter of 5.5 cm, a filter paper having the same diameter was laid, and 0.7 ml of the above pesticidal solution for test was added dropwise on the filter paper, followed by putting 30 mg of sucrose on it uniformly as a bait. Two male Blattella germanica imagoes were set free in the polyethylene cup and covered it with a lid. After 6 days, the number of surviving and dead Blattella germanica was examined and the rate of dead pests was calculated.

The test system of the next assay is Culex pipiens pallens. In words: Test Example 5: larvae in treated water, Culex pipiens pallens. The settings on record: 24 h; active ingredient concentration 3.5 ppm in water; twenty last-instar larvae of Culex pipiens pallens; after one day; read-out: rate of dead pests. On the procedure:
The formulation obtained according to Formulation Example 5 using the compound of the present invention (1), (2), (3), (4), (5), (6), (7), (8), (9), (10), (11), (12), (13), (14), (15), (16), (17), (18), (19), (20), (21), (22), (23), (25), (27), (28), (29), […], (31), (32), (33), (34), (35), (36), (37), (38), (39), (41), (44), (45), (46), (47) and (48) respectively, was diluted with water so that the active ingredient concentration came to 500 ppm to prepare a pesticidal solution for test.
0.7 ml of above pesticidal solution for test was added to 100 ml of ion exchanged water (active ingredient concentration: 3.5 ppm). Twenty last-instar larvae of Culex pipiens pallens were set free in the solution. After one day, the number of surviving and dead Culex pipiens pallens was examined and the rate of dead pests was calculated.

In the next assay the test system is Musca domestica. In words: Test Example 3: treated filter paper with sucrose bait, Musca domestica. The settings on record: 500 ppm, 0.7 ml on filter paper; ten female Musca domestica imagoes; after 24 hours; read-out: rate of dead pests. On the procedure: The formulation obtained according to Formulation Example 5 using the compound of the present invention (2), (3), (4), (6), (7), (8), (11), (12), (13), (15), (16), (19), (20), (21), (22), (28), (29), (30), (31), (32), (33), (34), (36), (37), (38) and (39) respectively, was diluted with water so that the active ingredient concentration came to 500 ppm to prepare a pesticidal solution for test.
On the bottom of a polyethylene cup having a diameter of 5.5 cm, a filter paper having the same diameter was laid, and 0.7 ml of the above pesticidal solution for test was added dropwise on the filter paper, followed by putting 30 mg of sucrose on it uniformly as a bait. Ten female Musca domestica imagoes were set free in the polyethylene cup and covered it with a lid. After 24 hours, the number of surviving and dead Musca domestica was examined and the rate of dead pests was calculated.

For the compound `CC(C)c1nn(CC(C#N)(C#N)CCC(F)(F)F)cc1Br` [compound of the present invention (11), [(4-bromo-3-i-propyl-1H-pyrazole-1-yl)methyl] (3,3,3-trifluoropropyl) malononitrile], the pest or weed control at 500 ppm was 100% with Blattella germanica and at least 90% with Musca domestica. In the assay on Culex pipiens pallens, the pest or weed control at 3.5 ppm is at least 95%.
On the same counts, the results for `CC(C)(C)c1nn(CC(C#N)(C#N)CCC(F)(F)F)cc1Br` [compound of the present invention (12), [(4-bromo-3-t-butyl-1H-pyrazole-1-yl)methyl](3,3,3-trifluoropropyl) malononitrile] are 100%, at least 90% and at least 95%.
On the same counts, the results for `CC(C)(C)c1nn(CC(C#N)(C#N)CCC(F)(F)F)cc1Cl` [compound of the present invention (13), [(4-chloro-3-t-butyl-1H-pyrazole-1-yl)methyl](3,3,3-trifluoropropyl) malononitrile] are 100%, at least 90% and at least 95%.
For the compound `N#CC(C#N)(CCC(F)(F)F)Cn1cc(Br)c(C(F)(F)F)n1` [compound of the present invention (15), [(4-bromo-3-trifluoromethyl-1H-pyrazole-1-yl)methyl](3,3,3-trifluoropropyl) malononitrile], the pest or weed control at 500 ppm with Blattella germanica is 100%; in the assay on Musca domestica, at least 90%. Moreover, in the assay with Culex pipiens pallens, the pest or weed control at 3.5 ppm was at least 95%.
On the same counts, the results for `C=CCC(C#N)(C#N)Cn1cc(Br)c(C(F)(F)F)n1` [compound of the present invention (16)] are 100%, at least 90% and at least 95%.
On the same counts, the results for `N#CC(C#N)(CCC(F)(F)F)Cn1cc(Cl)cn1` [compound of the present invention (19), [(4-chloro-1H-pyrazole-1-yl)methyl](3,3,3-trifluoropropyl) malononitrile] are 100%, at least 90% and at least 95%.
Regarding `C=CCC(C#N)(C#N)Cn1cc(Cl)cn1` [compound of the present invention (20), allyl [(4-chloro-1H-pyrazole-1-yl)methyl]malononitrile], the pest or weed control at 500 ppm is 100% with Blattella germanica and at least 90% in the assay on Musca domestica. The pest or weed control at 3.5 ppm in the assay on Culex pipiens pallens is at least 95%.
On the same counts, the results for `N#CC(C#N)(CCC(F)(F)F)Cn1cc(Br)cn1` [compound of the present invention (21), [(4-bromo-1H-pyrazole-1-yl)methyl](3,3,3-trifluoropropyl) malononitrile] are 100%, at least 90% and at least 95%.
Take `N#CC(C#N)(CCC(F)(F)F)Cn1cc(C(F)(F)F)cn1` [compound of the present invention (22), {[4-(trifluoromethyl)-1H-pyrazole-1-yl]methyl}(3,3,3-trifluoropropyl) malononitrile]: the pest or weed control at 500 ppm was 100% in the assay on Blattella germanica and at least 90% in the assay on Musca domestica. Further, in the assay with Culex pipiens pallens, the pest or weed control at 3.5 ppm is at least 95%.
The like results for `CC(C)c1ncn(CC(C#N)(C#N)CCC(F)(F)F)n1` [compound of the present invention (28), [(3-i-propyl-1H-1,2,4-triazole-1-yl)methyl](3,3,3-trifluoropropyl) malononitrile] were, in that order, 100%, at least 90% and at least 95%.
In the case of `CC(C)(C)c1ncn(CC(C#N)(C#N)CCC(F)(F)F)n1` [compound of the present invention (29), [(3-t-butyl-1H-1,2,4-triazole-1-yl)methyl](3,3,3-trifluoropropyl) malononitrile], the pest or weed control at 500 ppm was 100% in the assay with Blattella germanica and at least 90% in the assay with Musca domestica. The pest or weed control at 3.5 ppm with Culex pipiens pallens was at least 95%.
As to `C=CCC(C#N)(C#N)Cn1cnc(C(C)(C)C)n1` [compound of the present invention (31), allyl [(3-t-butyl-1H-1,2,4-triazole-1-yl)methyl]malononitrile], the pest or weed control at 500 ppm is 100% in the assay with Blattella germanica and at least 90% in the assay on Musca domestica. In addition, the pest or weed control at 3.5 ppm in the assay with Culex pipiens pallens is at least 95%.
The like results for `CC(C)(C)c1nc(Br)n(CC(C#N)(C#N)CCC(F)(F)F)n1` [compound of the present invention (32), [(5-bromo-3-t-butyl-1H-1,2,4-triazole 1-yl)methyl](3,3,3-trifluoropropyl)malononitrile] were, in that order, 100%, at least 90% and at least 95%.
The like results for `N#CC(C#N)(CCC(F)(F)F)Cn1cnc(C(F)(F)F)n1` [compound of the present invention (33), {[3-(trifluoromethyl)-1H-1,2,4-triazole-1-yl]methyl}(3,3,3-trifluoropropyl)malononitrile] were, in that order, 100%, at least 90% and at least 95%.
The like results for `N#CC(C#N)(CCC(F)(F)F)Cn1cnc(C(F)(F)C(F)(F)F)n1` [compound of the present invention (34), {[3-(pentafluoroethyl)-1H-1,2,4-triazole 1-yl]methyl}(3,3,3-trifluoropropyl) malononitrile] were, in that order, 100%, at least 90% and at least 95%.
In the case of `N#CC(C#N)(CCC(F)(F)F)Cn1ccc(C(F)(F)C(F)(F)F)n1` [compound of the present invention (36), {[3-(pentafluoroethyl)-1H-pyrazole-1-yl]methyl}(3,3,3-trifluoropropyl)malononitrile], the pest or weed control at 500 ppm in the assay with Blattella germanica is 100%; in the assay with Musca domestica, at least 90%. In addition, the pest or weed control at 3.5 ppm in the assay on Culex pipiens pallens is at least 95%.
Turning to `N#CC(C#N)(CCC(F)(F)F)Cn1cc(Br)c(C(F)(F)C(F)(F)F)n1` [compound of the present invention (37), [(4-bromo-3-(pentafluoroethyl)-1H-pyrazole-1-yl)methyl](3,3,3-trifluoropropyl) malononitrile], the pest or weed control at 500 ppm was 100% with Blattella germanica and at least 90% in the assay with Musca domestica. In the assay on Culex pipiens pallens, the pest or weed control at 3.5 ppm is at least 95%.
Consider `N#CC(C#N)(CCC(F)(F)F)Cn1cnc(C(F)(F)F)c1` [compound of the present invention (38), {[4-(trifluoromethyl)-1H-imidazole-1-yl]methyl}(3,3,3-trifluoropropyl) malononitrile], for which the pest or weed control at 500 ppm in the assay on Blattella germanica was 100%; in the assay with Musca domestica, at least 90%. Further, the pest or weed control at 3.5 ppm with Culex pipiens pallens is at least 95%.
